We go through one compound from PMC9124820, “In vitro evaluation of fenfluramine and norfenfluramine as victims of drug interactions” (Pharmacology Research & Perspectives, 2022).

Molecules are shown by their SMILES.

Series [1] can be described thus: Metabolic stability and metabolite identity, rat liver S9 fractions. Type of series: in vitro ADME. The conditions noted are these: pH 7.4; 1 µM FFA, rat liver S9 fractions 2 mg protein/mL. The method, then: (§1) LC‐MS/MS analyses to assess metabolic stability and identify the transporter substrate were performed using an API 4000 QTRAP mass spectrometer (SCIEX, Framingham, MA) with electrospray ionization in positive mode. Chromatography was performed using an Atlantis dC18 analytical column (100 × 2.1 mm, 5 µm; Waters Corporation, Milford, MA). Mobile phases were 0.2% v/v formic acid in water and 0.2% v/v formic acid in acetonitrile. For metabolic stability experiments, FFA and metabolites were eluted at a flow rate of 0.6 mL/min, with a linear gradient of 20%−80% acetonitrile from 0.30−2.0 min. […] The mass transitions monitored were 232.0 > 159.0 for FFA and 348.0 > 330.0 for 1ʹ‐OH‐midazolam‐d4 internal standard. […]
(§2) FFA (1 or 10 µM) was incubated with liver and intestinal S9 fractions (2 mg protein/mL) at 37 ± 1°C in 0.2‐mL incubation mixtures containing potassium phosphate buffer (50 mM, pH 7.4), magnesium chloride (MgCl2) (3 mM), and EDTA (1 mM, pH 7.4), in the presence or absence of a three‐component cofactor mixture (NADPH‐generating system, uridine diphosphate glucuronic acid (UDPGA) [8 mM], and 3’‐phosphoadenosine 5’‐phosphosulfate [0.5 mM]). […] Supernatant fractions were analyzed by LC‐MS/MS.
(§3) To characterize substrate loss and metabolic stability, duplicate samples were analyzed by LC‐MS/MS to determine the change in substrate concentration over the incubation period. […]

Series [2] in a line: Metabolic stability and metabolite identity, dog liver S9 fractions. To be noted: pH 7.4; 1 µM FFA, dog liver S9 fractions 2 mg protein/mL. In kind it is in vitro ADME. The method, then:
as §1, §2, §3

The nature of series [3]: Metabolic stability and metabolite identity, rat intestinal S9 fractions. The conditions noted are these: intestinal S9 fractions, pH 7.4; 1 µM FFA, rat intestine S9 fractions; outside assay detection limits. Type of series: in vitro ADME. The method, then: LC‐MS/MS analyses to assess metabolic stability and identify the transporter substrate were performed using an API 4000 QTRAP mass spectrometer (SCIEX, Framingham, MA) with electrospray ionization in positive mode. Chromatography was performed using an Atlantis dC18 analytical column (100 × 2.1 mm, 5 µm; Waters Corporation, Milford, MA). Mobile phases were 0.2% v/v formic acid in water and 0.2% v/v formic acid in acetonitrile. For metabolic stability experiments, FFA and metabolites were eluted at a flow rate of 0.6 mL/min, with a linear gradient of 20%−80% acetonitrile from 0.30−2.0 min. For transporter substrate experiments, the gradient was slightly modified to achieve suitable chromatography. The mass transitions monitored were 232.0 > 159.0 for FFA and 348.0 > 330.0 for 1ʹ‐OH‐midazolam‐d4 internal standard. […]
as §2
To characterize substrate loss and metabolic stability, duplicate samples were analyzed by LC‐MS/MS to determine the change in substrate concentration over the incubation period. The rate constant of elimination (kel, min^−1) was determined from the time course of substrate loss based on single exponential decay (A(t)=A0(‐kelt)) . Half‐life in vitro was determined by the following equation: t1/2 = 0.693/kel. The in vitro intrinsic clearance (CLint) was calculated from the rate constant of elimination as follows: CLintμL/min/mgprotein=kelmin^‐1×incubationvolume(μL)/mgproteinperincubation.
Percent loss of substrate was determined by normalizing the mean analyte peak‐area ratio at each time point to the average of four replicates at the 0‐min time point (100%).

For series [4] the following is noted: 0.1 mg/kg FFA twice daily with stiripentol plus clobazam, with or without valproate, steady state; ref Prescribing information: https://www.fintepla.com/; cited from earlier work.

In the case of `CCNC(C)Cc1cccc(C(F)(F)F)c1` (racemic) [FFA, (RS)‐ethyl (α‐methyl‐3‐trifluoromethylphenethyl)amine], the half-life (commonly the time in which the quantity being followed falls by half) at 1 µM in series [1] was 35.4 min; in series [2], 30 min; in series [3] it was over 120 min. Further, the microsomal CLint (in general, the capacity of the preparation to metabolise the compound, expressed as a volume cleared per time) at 1 µM in series [1] was 9.8 µL/min/mg; in series [2], 11.6 µL/min/mg; in series [3], under 2.9 µL/min/mg. Further, in series [4], the “increase in FFA AUC0‐24” value is listed as 166%. Further, under “CYP inhibition by stiripentol/clobazam plus renal clearance”, the “clearance accounted for in vivo” value is recorded as “approximately 80%”. For the same compound, the “maximum possible amount remaining for metabolism by MAO” value (human, in vivo, 0.1 mg/kg twice daily) was at most 20%.
